# Earlier results, collected in patent publication US20250042963A1, “METHODS FOR TREATING MYELOPROLIFERATIVE DISORDERS” (Acceleron Pharma Inc., priority 2015, published 2025).
# Tests used:
# myelofibrosis patients = settings: cited from earlier work
# [1] = system: patients with a myeloproliferative disorder; settings: symptomatic splenomegaly; cited from earlier work
# patients with MF = settings: 82 evaluable patients with MF, three phase 1 and 2 trials; cited from earlier work
# MF patients = settings: cited from earlier work
# [2] = system: patients with PMF or post-PV/ET MF; settings: cited from earlier work
# JAK2V617F-positive cells = settings: cited from earlier work
# [3] = system: patients with PV that did not respond to hydroxyurea; settings: cited from earlier work
smiles,measurement,setting,value
Nc1cccc2c1CN(C1CCC(=O)NC1=O)C2=O (centres unmarked) [lenalidomide],effect on anemia,myelofibrosis patients; myelofibrosis patients with del(5q31)-associated anemia,"significant improvement, with resolution of anemia"
same,spleen responses / response rate,[1],33%
Nc1cccc2c1C(=O)N(C1CCC(=O)NC1=O)C2=O (centres unmarked) [pomalidomide],anemia response according to IWG-MRT criteria,patients with MF,27%
CCCCc1nc2cc(/C=C/C(=O)NO)ccc2n1CCN(CC)CC [pracinostat],IWG criteria anemia responses,MF patients; MF patients,approximately 10%
same,reduction in spleen size (% of patients),"MF patients; human, in vivo",27%
CO[C@H]1C[C@@H]2CC[C@@H](C)[C@@](O)(O2)C(=O)C(=O)N2CCCC[C@H]2C(=O)O[C@H]([C@H](C)C[C@@H]2CC[C@@H](OCCO)[C@H](OC)C2)CC(=O)[C@H](C)/C=C(\C)[C@@H](O)[C@@H](OC)C(=O)[C@H](C)C[C@H](C)/C=C/C=C/C=C/1C [everolimus],complete resolution of pruritus,[2]; 30 evaluable patients,80%
same,complete resolution of systemic symptoms,[2]; 30 evaluable patients,69%
same,"response rate, European Myelofibrosis Network criteria",[2]; in vivo,60%
same,"response rate, International Working Group for Myelofibrosis Research and Treatment criteria",[2]; in vivo,23%
same,proliferation of JAK2V617F-positive cells,JAK2V617F-positive cells,decreased
"CCN(CC)Cc1ccc2cc(COC(=O)Nc3ccc(C(=O)NO)cc3)ccc2c1 [Givinostat, givinostat]",complete or partial response,"[3]; randomized phase 2 trial, PV",approximately 50%
same,tolerability,[3]; the combination,generally well tolerated
O=C1CCC(N2C(=O)c3ccccc3C2=O)C(=O)N1 (centres unmarked) [thalidomide],tolerability,"myelofibrosis patients; myelofibrosis patients, peripheral neuropathies, constipation, somnolence",poorly tolerated
same,spleen responses / response rate,[1],< 20%
